In the supplement of paper PMC10307832:

Assays:
Assay in all cases: relative viability (nuclei count vs DMSO), 5 days (fraction); higher = more cells survive
[1] = compound: CC1=C(C(=NN1)C)CC2=C(C3=C(S2)N(C(=O)N(C3=O)C)CC(C)C)C(=O)N4C[C@@H](CO4)O + CC(=O)c1c(C)c2cnc(Nc3ccc(N4CCNCC4)cn3)nc2n(C2CCCC2)c1=O [Palbociclib] (partner 0.5 µM)
Procedure, shortened: (§1)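 After 5 days of treatment, lung cancer cells in 1536-well plates were fixed and stained in a single step (final 0.05% Triton X-100, 1% formaldehyde, 1 ug/ml Hoechst) and their nuclei counted on 4× images. Treatment had been applied by pin tool the day after seeding as one drug alone or as a fixed anchor-drug dose with five library-drug doses (not always all listed) in √10 steps. Relative viability is the nuclei count of treated wells divided by that of vehicle wells, and values are medians of duplicate plates.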

[2] = compound: CC1=C(C(=NN1)C)CC2=C(C3=C(S2)N(C(=O)N(C3=O)C)CC(C)C)C(=O)N4C[C@@H](CO4)O + Nc1nc2[nH]cc(CCc3ccc(C(=O)N[C@@H](CCC(=O)O)C(=O)O)cc3)c2c(=O)[nH]1 [Pemetrexed] (partner 0.2 µM)
Procedure, shortened: as §1

IDH-C35 + Alpelisib = compound: Cc1ccccc1C(C(=O)NC1CCCCC1)N(C(=O)Cn1ccnc1C)c1cccc(F)c1 [IDH-C35] + Cc1nc(NC(=O)N2CCC[C@H]2C(N)=O)sc1-c1ccnc(C(C)(C)C(F)(F)F)c1 [Alpelisib] (partner 2 µM)
Procedure, shortened: as §1

IDH-C35 + Decitabine = compound: Cc1ccccc1C(C(=O)NC1CCCCC1)N(C(=O)Cn1ccnc1C)c1cccc(F)c1 [IDH-C35] + Nc1ncn([C@H]2C[C@H](O)[C@@H](CO)O2)c(=O)n1 [Decitabine] (partner 2 µM)
Procedure, shortened: as §1

| Cell Line | relative viability ([1]; first compound 0.0025 µM) | relative viability ([1]; first compound 0.007906 µM) | relative viability ([1]; first compound 0.025 µM) | relative viability ([1]; first compound 0.07906 µM) | relative viability ([1]; first compound 0.25 µM) | relative viability ([2]; first compound 0.0025 µM) | relative viability ([2]; first compound 0.007906 µM) | relative viability ([2]; first compound 0.025 µM) | relative viability ([2]; first compound 0.07906 µM) | relative viability ([2]; first compound 0.25 µM) | relative viability (IDH-C35 + Alpelisib; first compound 0.08 µM) | relative viability (IDH-C35 + Alpelisib; first compound 0.253 µM) | relative viability (IDH-C35 + Alpelisib; first compound 0.8 µM) | relative viability (IDH-C35 + Alpelisib; first compound 2.53 µM) | relative viability (IDH-C35 + Alpelisib; first compound 8 µM) | relative viability (IDH-C35 + Decitabine; first compound 0.08 µM) | relative viability (IDH-C35 + Decitabine; first compound 0.253 µM) | relative viability (IDH-C35 + Decitabine; first compound 0.8 µM) | relative viability (IDH-C35 + Decitabine; first compound 2.53 µM) | relative viability (IDH-C35 + Decitabine; first compound 8 µM) |
| --- | --- | --- | --- | --- | --- | --- | --- | --- | --- | --- | --- | --- | --- | --- | --- | --- | --- | --- | --- | --- |
| NCI-H1915 | 0.563 | 0.574 | 0.522 | 0.532 | 0.539 | 0.497 | 0.465 | 0.466 | 0.497 | 0.53 | 1.08 | 1.07 | 1.04 | 1.05 | 1.04 | 0.278 | 0.248 | 0.293 | 0.281 | 0.277 |
| NCI-H1793 | 0.3 | 0.36 | 0.324 | 0.313 | 0.3 | 0.973 | 1.13 | 0.883 | 0.825 | 0.609 | 0.764 | 0.689 | 0.76 | 0.74 | 0.677 | 0.519 | 0.454 | 0.535 | 0.586 | 0.476 |
| NCI-H2023 | 0.305 | 0.375 | 0.296 | 0.402 | 0.491 | 0.249 | 0.258 | 0.224 | 0.233 | 0.225 | 0.598 | 0.581 | 0.579 | 0.492 | 0.611 | 0.231 | 0.22 | 0.259 | 0.233 | 0.265 |
| COR-L 105 | 0.433 | 0.423 | 0.395 | 0.403 | 0.383 | 1.27 | 1.15 | 1.06 | 1.24 | 1.35 | 1.04 | 1.08 | 1.13 | 0.882 | 0.99 | 0.559 | 0.678 | 0.724 | 0.677 | 0.619 |
| RERF-LC-KJ | 1.12 | 1.11 | 1.04 | 1.06 | 1.12 | 0.46 | 0.468 | 0.463 | 0.511 | 0.503 | 0.824 | 0.827 | 0.853 | 0.73 | 0.886 | 0.727 | 0.69 | 0.753 | 0.809 | 0.681 |
| LXF-289 | 0.525 | 0.605 | 0.574 | 0.586 | 0.613 | 0.88 | 0.811 | 0.751 | 0.922 | 0.975 | 1.04 | 1.03 | 1.01 | 0.994 | 1.03 | 0.405 | 0.401 | 0.38 | 0.371 | 0.415 |
| PC-14 | 0.453 | 0.45 | 0.493 | 0.468 | 0.646 | 0.158 | 0.126 | 0.155 | 0.122 | 0.121 | 1.02 | 0.956 | 0.959 | 0.927 | 0.758 | 0.211 | 0.206 | 0.239 | 0.226 | 0.214 |
| NCI-H650 | 0.345 | 0.353 | 0.274 | 0.334 | 0.347 | 0.983 | 0.989 | 0.775 | 0.949 | 0.957 | 1.07 | 1.13 | 1.17 |  | 1.03 | 0.304 | 0.339 | 0.371 |  | 0.313 |
| NCI-H1666 | 0.702 | 0.641 | 0.734 | 0.591 | 0.636 | 0.886 | 0.925 | 0.857 | 0.906 | 0.866 | 0.974 | 0.951 | 0.955 | 0.986 | 0.911 | 0.676 | 0.801 | 0.747 | 0.606 | 0.655 |
| NCI-H2085 | 0.495 | 0.439 | 0.431 | 0.451 | 0.492 | 0.926 | 0.93 | 0.73 | 0.987 | 0.476 | 0.973 | 0.897 | 0.799 | 1.01 | 0.863 | 0.543 | 0.549 | 0.554 | 0.569 | 0.465 |
| NCI-H1734 | 0.328 | 0.396 | 0.349 | 0.307 | 0.322 | 0.412 | 0.426 | 0.436 | 0.467 | 0.423 | 0.764 | 0.694 | 0.72 | 0.641 | 0.648 | 0.537 | 0.524 | 0.528 | 0.483 | 0.499 |
| NCI-H2126 | 0.356 | 0.335 | 0.368 | 0.327 | 0.369 | 0.766 | 0.737 | 0.63 | 0.6 | 0.739 | 0.766 | 0.758 | 0.745 | 0.737 | 0.752 | 0.573 | 0.602 | 0.592 | 0.526 | 0.559 |
| EMC-BAC-2 | 0.549 | 0.543 | 0.499 | 0.569 | 0.549 | 0.46 | 0.468 | 0.415 | 0.44 | 0.454 | 0.79 | 0.665 | 0.739 | 0.756 | 0.709 | 1.03 | 0.988 | 1 | 0.925 | 0.993 |
| NCI-H1993 | 0.689 | 0.731 | 0.709 | 0.597 | 0.75 | 0.651 | 0.623 | 0.609 | 0.607 | 0.639 | 0.667 | 0.732 | 0.63 | 0.768 | 0.711 | 0.586 | 0.567 | 0.7 | 0.693 | 0.566 |
| NCI-H520 | 0.256 | 0.225 | 0.259 | 0.239 | 0.204 | 0.731 | 0.711 | 0.468 | 0.526 | 0.504 | 0.71 | 0.808 | 0.891 | 0.845 | 0.954 | 0.407 | 0.462 | 0.538 | 0.508 | 0.486 |
| NCI-H647 | 0.376 | 0.409 | 0.441 | 0.518 | 0.287 | 0.194 | 0.177 | 0.173 | 0.199 | 0.195 | 1.14 | 1.23 | 1.14 | 1.12 | 0.917 | 0.45 | 0.344 | 0.401 | 0.42 | 0.366 |
| NCI-H1792 | 0.777 | 0.747 | 0.665 | 0.604 | 0.627 | 0.932 | 0.6 | 0.768 | 0.644 | 0.719 | 0.655 | 0.727 | 0.669 | 0.741 | 0.827 | 0.45 | 0.48 | 0.476 | 0.539 | 0.533 |
| SK-LU-1 | 0.375 | 0.349 | 0.294 | 0.278 | 0.281 | 0.96 | 0.719 | 0.736 | 0.745 | 0.846 | 0.993 | 0.918 | 1.29 | 1.11 | 0.934 | 0.636 | 0.687 | 0.592 | 0.65 | 0.654 |
| NCI-H2009 | 0.222 | 0.206 | 0.221 | 0.319 | 0.175 | 1.09 | 1.03 | 0.955 | 1.03 | 1.06 | 1.24 | 1.12 | 1.1 | 1.15 | 1.1 | 0.354 | 0.408 | 0.387 | 0.321 | 0.372 |
| LOU-NH91 | 0.535 | 0.565 | 0.508 | 0.496 | 0.526 | 0.404 | 0.362 | 0.402 | 0.366 | 0.365 | 0.746 | 0.774 | 0.712 | 0.711 | 0.706 | 0.808 | 0.799 | 0.795 | 0.767 | 0.799 |
| NCI-H2405 | 0.529 | 0.531 | 0.54 | 0.473 | 0.563 | 1.15 | 1.22 | 1.03 | 1 | 0.795 | 0.927 | 0.815 | 0.777 |  | 0.736 | 0.701 | 0.751 | 0.652 | 0.775 | 0.668 |
| LCLC-97TM1 | 0.262 | 0.266 | 0.279 | 0.196 | 0.247 | 0.179 | 0.19 | 0.173 | 0.152 | 0.202 | 0.289 | 0.213 | 0.242 |  | 0.242 | 0.219 | 0.247 | 0.255 |  | 0.238 |
| H3255 | 0.32 | 0.326 | 0.269 | 0.296 | 0.315 | 0.632 | 0.576 | 0.496 | 0.618 | 0.563 | 0.681 | 0.822 | 0.633 | 0.774 | 0.637 | 0.61 | 0.607 | 0.606 | 0.63 | 0.596 |
| SK-MES-1 | 0.358 | 0.336 | 0.319 | 0.329 | 0.333 | 1.08 | 0.988 | 0.857 | 0.967 | 0.988 | 1.02 | 1.01 | 0.873 | 0.887 | 0.833 | 0.294 | 0.39 | 0.379 | 0.362 | 0.377 |
| NCI-H1437 | 0.357 | 0.348 | 0.284 | 0.296 | 0.303 | 0.341 | 0.322 | 0.331 | 0.354 | 0.316 | 0.961 | 0.992 | 0.896 | 0.933 | 0.966 | 0.56 | 0.56 | 0.576 | 0.572 | 0.525 |
| LU99A | 0.476 | 0.493 | 0.41 | 0.436 | 0.391 | 0.18 | 0.175 | 0.159 | 0.211 | 0.179 | 0.49 | 0.514 | 0.553 | 0.517 | 0.562 | 0.963 | 0.853 | 0.944 | 0.867 | 0.849 |
| HCC-827 | 0.403 | 0.414 | 0.339 | 0.541 | 0.466 | 0.245 | 0.27 | 0.272 | 0.288 | 0.237 | 0.917 | 0.897 | 1.04 | 1 | 0.75 | 0.309 | 0.318 | 0.282 | 0.317 | 0.296 |
